Measurements from patent US11701372B2, “Inhalation formulations of 1'-cyano substituted carba-nucleoside analogs” (priority 2020, dated 2023).
Where two headings read alike, the source gives them in different places.

Type: physicochemical
Conditions: for % assay/degs / Total degs / pH: T = 0
Experimental: For each condition, samples were staged at ambient and refrigerated conditions. Samples were analyzed for % assay/degs, appearance, reconstitution time, pH, and compared to T=0. The structures of the key impurities/metabolites are shown below.

With `CCC(CC)COC(=O)[C@H](C)N[P@](=O)(OC[C@H]1O[C@@](C#N)(c2ccc3c(N)ncnn23)[C@H](O)[C@@H]1O)Oc1ccccc1` [Formula Ia, (S)-2-ethylbutyl 2-(((S)-(((2R,3S,4R,5R)-5-(4-aminopyrrolo[2,1-f][1,2,4]triazin-7-yl)-5-cyano-3,4-dihydroxytetrahydrofuran-2-yl)methoxy)(phenoxy)phosphoryl)amino)propanoate] the “% assay/degs, difference from T = 0” value (pH 1.8, 2-8° C., 2 h) was 0.0%, the “Total degs, difference from T = 0” value (pH 1.8, 2-8° C., 2 h) was 0.0% and the “pH, difference from T = 0” value (pH 1.8, 2-8° C., 2 h) was 0.0. The “% assay/degs, difference from T = 0” value (pH 1.8, 2-8° C., 3 h) was −0.2%, the “Total degs, difference from T = 0” value (pH 1.8, 2-8° C., 3 h) was 0.0% and the “pH, difference from T = 0” value (pH 1.8, 2-8° C., 3 h) was 0.0. For the same molecule, the “% assay/degs, difference from T = 0” value (pH 1.8, 2-8° C., 8 h) was −0.2%, the “Total degs, difference from T = 0” value (pH 1.8, 2-8° C., 8 h) was 0.1% and the “pH, difference from T = 0” value (pH 1.8, 2-8° C., 8 h) was 0.0. For the same molecule, the “% assay/degs, difference from T = 0” value (pH 1.8, 2-8° C., 24 h) was −0.5%, the “Total degs, difference from T = 0” value (pH 1.8, 2-8° C., 24 h) was 0.2% and the “pH, difference from T = 0” value (pH 1.8, 2-8° C., 24 h) was 0.0. For the same molecule, the “% assay/degs, difference from T = 0” value (pH 1.8, 2-8° C., 48 h) was −0.2%, the “Total degs, difference from T = 0” value (pH 1.8, 2-8° C., 48 h) was 0.4% and the “pH, difference from T = 0” value (pH 1.8, 2-8° C., 48 h) was 0.0. For the same molecule, the “% assay/degs, difference from T = 0” value (pH 1.8, Ambient, 1 h) was −0.3%, the “Total degs, difference from T = 0” value (pH 1.8, Ambient, 1 h) was 0.0% and the “pH, difference from T = 0” value (pH 1.8, Ambient, 1 h) was 0.0. The “% assay/degs, difference from T = 0” value (pH 1.8, Ambient, 2 h) was −0.1%, the “Total degs, difference from T = 0” value (pH 1.8, Ambient, 2 h) was 0.1% and the “pH, difference from T = 0” value (pH 1.8, Ambient, 2 h) was 0.0. For the same molecule, the “% assay/degs, difference from T = 0” value (pH 1.8, Ambient, 3 h) was −0.3%, the “Total degs, difference from T = 0” value (pH 1.8, Ambient, 3 h) was 0.1% and the “pH, difference from T = 0” value (pH 1.8, Ambient, 3 h) was 0.0. For the same molecule, the “% assay/degs, difference from T = 0” value (pH 1.8, Ambient, 8 h) was −0.4%, the “Total degs, difference from T = 0” value (pH 1.8, Ambient, 8 h) was 0.4% and the “pH, difference from T = 0” value (pH 1.8, Ambient, 8 h) was 0.0. For the same molecule, the “% assay/degs, difference from T = 0” value (pH 1.8, Ambient, 24 h) was −1.3%, the “Total degs, difference from T = 0” value (pH 1.8, Ambient, 24 h) was 1.2% and the “pH, difference from T = 0” value (pH 1.8, Ambient, 24 h) was 0.0. For the same molecule, the “% assay/degs, difference from T = 0” value (pH 1.8, Ambient, 48 h) was −3.5%, the “Total degs, difference from T = 0” value (pH 1.8, Ambient, 48 h) was 2.4% and the “pH, difference from T = 0” value (pH 1.8, Ambient, 48 h) was 0.0. For the same molecule, the “% assay/degs” value (pH 1.8) was 99.4%, the Total degs (pH 1.8) was 0.2% and the pH (pH 1.8) was 1.8. For the same molecule, the “% assay/degs, difference from T = 0” value (pH 2.0, 2-8° C., 2 h) was 0.6%, the “Total degs, difference from T = 0” value (pH 2.0, 2-8° C., 2 h) was 0.0% and the “pH, difference from T = 0” value (pH 2.0, 2-8° C., 2 h) was 0.0. The “% assay/degs, difference from T = 0” value (pH 2.0, 2-8° C., 3 h) was 0.2%, the “Total degs, difference from T = 0” value (pH 2.0, 2-8° C., 3 h) was 0.0% and the “pH, difference from T = 0” value (pH 2.0, 2-8° C., 3 h) was 0.0. For the same molecule, the “% assay/degs, difference from T = 0” value (pH 2.0, 2-8° C., 8 h) was −0.1%, the “Total degs, difference from T = 0” value (pH 2.0, 2-8° C., 8 h) was 0.1% and the “pH, difference from T = 0” value (pH 2.0, 2-8° C., 8 h) was 0.0. The “% assay/degs, difference from T = 0” value (pH 2.0, 2-8° C., 24 h) was 0.2%, the “Total degs, difference from T = 0” value (pH 2.0, 2-8° C., 24 h) was 0.1% and the “pH, difference from T = 0” value (pH 2.0, 2-8° C., 24 h) was 0.0. For the same molecule, the “% assay/degs, difference from T = 0” value (pH 2.0, 2-8° C., 48 h) was −0.5%, the “Total degs, difference from T = 0” value (pH 2.0, 2-8° C., 48 h) was 0.3% and the “pH, difference from T = 0” value (pH 2.0, 2-8° C., 48 h) was 0.0. For the same molecule, the “% assay/degs, difference from T = 0” value (pH 2.0, Ambient, 1 h) was 0.1%, the “Total degs, difference from T = 0” value (pH 2.0, Ambient, 1 h) was 0.0% and the “pH, difference from T = 0” value (pH 2.0, Ambient, 1 h) was 0.0. The “% assay/degs, difference from T = 0” value (pH 2.0, Ambient, 2 h) was −0.2%, the “Total degs, difference from T = 0” value (pH 2.0, Ambient, 2 h) was 0.1% and the “pH, difference from T = 0” value (pH 2.0, Ambient, 2 h) was 0.0. For the same molecule, the “% assay/degs, difference from T = 0” value (pH 2.0, Ambient, 3 h) was 0.3%, the “Total degs, difference from T = 0” value (pH 2.0, Ambient, 3 h) was 0.1% and the “pH, difference from T = 0” value (pH 2.0, Ambient, 3 h) was 0.0. The “% assay/degs, difference from T = 0” value (pH 2.0, Ambient, 8 h) was −0.2%, the “Total degs, difference from T = 0” value (pH 2.0, Ambient, 8 h) was 0.2% and the “pH, difference from T = 0” value (pH 2.0, Ambient, 8 h) was 0.0. For the same molecule, the “% assay/degs, difference from T = 0” value (pH 2.0, Ambient, 24 h) was −0.6%, the “Total degs, difference from T = 0” value (pH 2.0, Ambient, 24 h) was 0.8% and the “pH, difference from T = 0” value (pH 2.0, Ambient, 24 h) was 0.0. The “% assay/degs, difference from T = 0” value (pH 2.0, Ambient, 48 h) was −1.8%, the “Total degs, difference from T = 0” value (pH 2.0, Ambient, 48 h) was 1.6% and the “pH, difference from T = 0” value (pH 2.0, Ambient, 48 h) was 0.0. For the same molecule, the “% assay/degs” value (pH 2.0) was 99.2%, the Total degs (pH 2.0) was 0.2% and the pH (pH 2.0) was 2.0. For the same molecule, the “% assay/degs, difference from T = 0” value (pH 3.5, 2-8° C., 2 h) was 0.6%, the “Total degs, difference from T = 0” value (pH 3.5, 2-8° C., 2 h) was 0.0% and the “pH, difference from T = 0” value (pH 3.5, 2-8° C., 2 h) was 0.0. The “% assay/degs, difference from T = 0” value (pH 3.5, 2-8° C., 8 h) was 0.3%, the “Total degs, difference from T = 0” value (pH 3.5, 2-8° C., 8 h) was 0.0% and the “pH, difference from T = 0” value (pH 3.5, 2-8° C., 8 h) was 0.0. For the same molecule, the “% assay/degs, difference from T = 0” value (pH 3.5, 2-8° C., 24 h) was 0.7%, the “Total degs, difference from T = 0” value (pH 3.5, 2-8° C., 24 h) was 0.0% and the “pH, difference from T = 0” value (pH 3.5, 2-8° C., 24 h) was −0.1. For the same molecule, the “% assay/degs, difference from T = 0” value (pH 3.5, 2-8° C., 48 h) was 0.5%, the “Total degs, difference from T = 0” value (pH 3.5, 2-8° C., 48 h) was 0.0% and the “pH, difference from T = 0” value (pH 3.5, 2-8° C., 48 h) was 0.0. For the same molecule, the “% assay/degs, difference from T = 0” value (pH 3.5, 2-8° C., 72 h) was 0.7%, the “Total degs, difference from T = 0” value (pH 3.5, 2-8° C., 72 h) was 0.0% and the “pH, difference from T = 0” value (pH 3.5, 2-8° C., 72 h) was −0.1. For the same molecule, the “% assay/degs, difference from T = 0” value (pH 3.5, 2-8° C., 96 h) was 0.2%, the “Total degs, difference from T = 0” value (pH 3.5, 2-8° C., 96 h) was 0.0% and the “pH, difference from T = 0” value (pH 3.5, 2-8° C., 96 h) was 0.0. For the same molecule, the “% assay/degs, difference from T = 0” value (pH 3.5, 2-8° C., 168 h) was 0.6%, the “Total degs, difference from T = 0” value (pH 3.5, 2-8° C., 168 h) was 0.0% and the “pH, difference from T = 0” value (pH 3.5, 2-8° C., 168 h) was 0.0. The “% assay/degs, difference from T = 0” value (pH 3.5, Ambient, 2 h) was 0.6% and the “Total degs, difference from T = 0” value (pH 3.5, Ambient, 2 h) was 0.0%.
